Experimental data from patent US8765779B2, “Tricyclic derivatives and their pharmaceutical use and compositions” (Cephalon, Inc., priority 2009, dated 2014).
Structures can show the parent of a compound that is named as a salt.

With `COc1cc(OCC2CC2)cc(S(=O)(=O)c2ccc3c(c2)OC2CNCCC32)c1` (stereo not shown) (as salt: HCl) [Example 585] the melting point was 224 to 225 °C.
For `CC1(C2CC2)NCCc2c1oc1cc(S(=O)(=O)c3cccc(F)c3)ccc21` (racemic) (as salt: HCl) [Example 29, 1-cyclopropyl-7-[(3-fluorophenyl)sulfonyl]-1-methyl-1,2,3,4-tetrahydro[1]benzofuro[2,3-c]pyridine], the melting point was > 250 °C (dec.).
Work on `Cc1nc(COc2cccc(S(=O)(=O)c3ccc4c(c3)OC3CNCCC43)c2)cs1` (stereo not shown) (as salt: HCl) [Example 569] yielded a melting point of 205 to 208 °C.
For `CC(C)Oc1cccc(S(=O)(=O)c2ccc3c4c(oc3c2)C2(CCOC2)NCC4)c1` (single isomer, unassigned) (as salt: HCl) [Example 31, 7-{[3-(propan-2-yloxy)phenyl]sulfonyl}-3,4,4′,5′-tetrahydro-2H-spiro[1-benzofuro[2,3-c]pyridine-1,3′-furan]], the melting point was 261 to 263 °C (dec.).
`O=S(=O)(c1cccc(OCc2cccnc2)c1)c1ccc2c(c1)OC1CNCCC21` (stereo not shown) (as salt: HCl) [Example 559] showed a melting point of 167 to 171 °C.
For `CC12CCNCC1Oc1ccc(S(=O)(=O)c3cc[n+]([O-])cc3)cc12` (racemic) (as salt: HCl) [Example 14, 4a-methyl-6-[(1-oxidopyridin-4-yl)sulfonyl]-1,2,3,4,4a,9a-hexahydro[1]benzofuro[2,3-c]pyridine], the melting point was 207 to 210 °C.
With `CC(C)Oc1cccc(S(=O)(=O)c2ccc3c4c(oc3c2)C2(CCC2)NCC4)c1` (as salt: HCl) [Example 26, 7-{[3-(propan-2-yloxy)phenyl]sulfonyl}-3,4-dihydro-2H-spiro[1-benzofuro[2,3-c]pyridine-1,1′-cyclobutane]] the melting point was > 200 °C (dec.).
With `O=S(=O)(c1cccc(OCC2CCOCC2)c1)c1ccc2c(c1)OC1CNCCC21` (stereo not shown) (as salt: HCl) [Example 581, 7-{[3-(tetrahydro-2H-pyran-4-ylmethoxy)phenyl]sulfonyl}-1,2,3,4,4a,9a-hexahydro[1]benzofuro[2,3-c]pyridine] the melting point was 186 to 188 °C.
Compound `COc1cc(OC)cc(S(=O)(=O)c2ccc3c(c2)OC2CNCCC32C)c1` (stereo not shown) (as salt: HCl) [Example 489] has a melting point of 254 to 255 °C.
For `O=S(=O)(c1cccc(OCC2CCCO2)c1)c1ccc2c(c1)OC1CNCCC21` (stereo not shown) (as salt: HCl) [Example 577], the melting point was 205 to 206 °C.
With `CC1(C)NCCc2c1oc1ccc(S(=O)(=O)c3cccc(F)c3)cc21` (as salt: HCl) [Example 42, 6-[(3-fluorophenyl)sulfonyl]-1,1-dimethyl-1,2,3,4-tetrahydro[1]benzofuro[2,3-c]pyridine] the melting point was over 200 °C.
With `Cc1c(OCC2CCOCC2)cccc1S(=O)(=O)c1ccc2c(c1)OC1CNCCC21` (stereo not shown) (as salt: HCl) [Example 582] the melting point was 201 to 202 °C.
In the case of `CC(C)Oc1cccc(S(=O)(=O)c2ccc3c4c(oc3c2)C2(CCOC2)NCC4)c1` (single isomer, unassigned) (as salt: HCl) [Example 32, 7-{[3-(propan-2-yloxy)phenyl]sulfonyl}-3,4,4′,5′-tetrahydro-2H-spiro[1-benzofuro[2,3-c]pyridine-1,3′-furan]], the melting point is reported as 259 to 261 °C (dec.).
Compound `N#Cc1ccccc1COc1cccc(S(=O)(=O)c2ccc3c(c2)OC2CNCCC32)c1` (stereo not shown) (as salt: HCl) [Example 550] has a melting point of 194 to 195 °C.
For `COc1cccc(S(=O)(=O)c2ccc3c4c(oc3c2)C(C)(C)NCC4)c1` (as salt: HCl) [Example 16, 7-[(3-methoxyphenyl)sulfonyl]-1,1-dimethyl-1,2,3,4-tetrahydro[1]benzofuro[2,3-c]pyridine], the melting point was 335 °C (dec.).
With `O=S(=O)(c1cccc(F)c1)c1ccc2c3c(oc2c1)C1(CCCC1)NCC3` (as salt: HCl) [Example 28, 7-[(3-fluorophenyl)sulfonyl]-3,4-dihydro-2H-spiro[1-benzofuro[2,3-c]pyridine-1,1′-cyclopentane]] the melting point was over 250 °C.
